The term inhibition denotes the share of the control response that was lost under treatment. A high value points to strong suppression.

The test system of assay [1] is binding site 2 of the sodium channel. As to the kind of experiment: Binding investigations at sodium channel binding site 2 (BTX binding). The note with it: 10 μM; rat cerebrocortex synaptosomes; [3H]-Batrachotoxinin A20 α-benzoate 10 nM; 37° C., 120 min. The protocol: Binding Investigations at Sodium Channel Binding Site 2
Binding site 2 of the sodium channel is the so-called batrachotoxin (BTX) binding site. [^3H]-Batrachotoxinin A20 α-benzoate (10 nM in the batch) was used as ligand. These ion channel particles (synaptosomes) were enriched from rat cerebrocortex after Gray and Whittaker (E. G. Gray and V. P. Whittaker (1962) J. Anat. 76, 79-88). The radioactivity measured in the presence of veratridine (0.3 mM in the batch) is defined as non-specific binding.
The assay conditions were as published by Pauwels, Leysen and Laduron (P. J. Pauwels, J. E. Leysen and P. M. Laduron (1986) Eur. J. Pharmacol. 124, 291-298). Incubation at 37° C. for 120 min.

Assay [2] deals with T1, NA transporter (Rattus norvegicus, UniProt Q63380).
T1 construct: synaptosomes were freshly isolated from rat brain regions; from tissue; host or cells: rat hypothalamus synaptosomes (P2 fraction)
Description: Noradrenaline reuptake inhibition (NA uptake inhibition) in synaptosomes. The note with it: synaptosomes from hypothalamus of male rat brains. The format is biochemical. The method, then: In order to be able to carry out these in vitro studies, synaptosomes were freshly isolated from rat brain regions. A so-called “P2” fraction was used, which was prepared according to the instructions given by Gray and Whittaker (E. G. Gray and V. P. Whittaker (1962) J. Anat. 76, 79-88).

T1 sequence (Q63380 1-617): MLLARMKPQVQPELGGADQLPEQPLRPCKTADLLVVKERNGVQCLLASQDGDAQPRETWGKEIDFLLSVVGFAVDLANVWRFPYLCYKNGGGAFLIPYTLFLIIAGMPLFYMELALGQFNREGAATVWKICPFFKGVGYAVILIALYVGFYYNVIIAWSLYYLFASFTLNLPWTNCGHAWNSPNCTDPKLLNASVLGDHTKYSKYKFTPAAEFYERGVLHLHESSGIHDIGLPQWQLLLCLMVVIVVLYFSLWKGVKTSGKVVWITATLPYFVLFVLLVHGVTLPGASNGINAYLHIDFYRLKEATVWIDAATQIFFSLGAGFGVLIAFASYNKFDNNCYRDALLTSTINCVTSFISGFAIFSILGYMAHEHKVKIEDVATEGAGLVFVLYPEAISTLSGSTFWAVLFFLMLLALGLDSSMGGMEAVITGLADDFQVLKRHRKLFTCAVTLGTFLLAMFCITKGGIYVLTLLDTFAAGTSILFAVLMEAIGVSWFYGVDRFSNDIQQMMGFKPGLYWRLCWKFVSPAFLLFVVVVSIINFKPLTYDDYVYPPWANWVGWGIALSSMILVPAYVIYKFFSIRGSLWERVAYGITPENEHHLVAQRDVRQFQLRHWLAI

In the case of `CN1CCN(CC2CCCCCC2(O)c2ccc(Cl)cc2)CC1` (stereo not drawn) [1-(4-Chloro-phenyl)-2-(4-methyl-piperazin-1-ylmethyl)-cycloheptanol], in assay [1], the “BTX binding at 10 μM [%] inhibition” value is listed as 69%. The inhibition at 10 µM in assay [2] was 70%.

As for `Cc1cc(C2(O)CCCCCC2CN2CCN(C)CC2)ccc1F` (stereo not drawn) [1-(4-Fluoro-3-methyl-phenyl)-2-(4-methyl-piperazin-1-ylmethyl)-cycloheptanol], the “BTX binding at 10 μM [%] inhibition” value in assay [1] worked out at 69%. Moreover, 10 µM produced 66% inhibition in assay [2].

As to `Cc1cc(C2(O)CCCCC2CN2CCN(C)CC2)ccc1F` (stereo not drawn) [1-(4-Fluoro-3-methyl-phenyl)-2-(4-methyl-piperazin-1-ylmethyl)-cyclohexanol], the “BTX binding at 10 μM [%] inhibition” value in assay [1] was found to be 60%. The same molecule registered an inhibition at 10 µM in assay [2] of 65%.

As to `Cc1cccc(C2(O)CCCCC2CN2CCN(C)CC2)c1` (stereo not drawn) [2-(4-Methyl-piperazin-1-ylmethyl)-1-m-tolyl-cyclohexanol], in assay [1], the “BTX binding at 10 μM [%] inhibition” value is recorded as 58%. For the same molecule, the inhibition at 10 µM in assay [2] came to 44%.

As for `Cc1ccc(C2(O)CCCCC2CN2CCN(C)CC2)cc1` (stereo not drawn) [2-(4-Methyl-piperazin-1-ylmethyl)-1-p-tolyl-cyclohexanol], the “BTX binding at 10 μM [%] inhibition” value in assay [1] is recorded as 53%. Also, the inhibition at 10 µM in assay [2] was found to be 75%.

Take `CN1CCN(CC2CCCCC2(O)CCc2ccccc2)CC1` (stereo not drawn) [2-(4-Methyl-piperazin-1-ylmethyl)-1-phenethyl-cyclohexanol]: the “BTX binding at 10 μM [%] inhibition” value in assay [1] turned out to be 65%. Also, in assay [2], the inhibition at 10 µM is 71%.

As for `CN1CCN(CC2CCCCCCC2(O)CCc2ccccc2)CC1` (stereo not drawn) [2-(4-Methyl-piperazin-1-ylmethyl)-1-phenethyl-cyclooctanol], in assay [1], the “BTX binding at 10 μM [%] inhibition” value is reported as 78%. The molecule further gave an inhibition at 10 µM in assay [2] of 61%.

For the molecule `CN1CCN(CC2CCCCCC2(O)c2ccccc2)CC1` (stereo not drawn) [2-(4-Methyl-piperazin-1-ylmethyl)-1-phenyl-cycloheptanol], the “BTX binding at 10 μM [%] inhibition” value in assay [1] is listed as 63%. Also, the inhibition at 10 µM in assay [2] stood at 50%.

The molecule `CCC(O)(Cc1ccc(Cl)cc1)C(C)CN1CCN(c2cccc(Cl)c2)CC1` (stereo not drawn) [3-(4-Chloro-benzyl)-1-[4-(3-chloro-phenyl)-piperazin-1-yl]-2-methyl-pentan-3-ol] gave an inhibition at 10 µM in assay [2] of 39%.

`CCC(O)(c1ccc(Cl)cc1)C(C)CN1CCN(c2cccc(Cl)c2)CC1` (stereo not drawn) [3-(4-Chloro-phenyl)-1-[4-(3-chloro-phenyl)-piperazin-1-yl]-2-methyl-pentan-3-ol] came in with an inhibition at 10 µM in assay [2] of 54%.

Consider `CCC(O)(c1ccc(C(C)(C)C)cc1)C(C)CN1CCN(c2cccc(Cl)c2)CC1` (stereo not drawn) [3-(4-tert-Butyl-phenyl)-1-[4-(3-chloro-phenyl)-piperazin-1-yl]-2-methyl-pentan-3-ol], for which the inhibition at 10 µM in assay [2] came out at 62%.

The molecule `CCC(O)(Cc1ccccc1)C(C)CN1CCN(c2cccc(Cl)c2)CC1` (stereo not drawn) [3-Benzyl-1-[4-(3-chloro-phenyl)-piperazin-1-yl]-2-methyl-pentan-3-ol] showed an inhibition at 10 µM in assay [2] of 55%.

As for `CCC(O)(CCc1ccccc1)C(C)CN1CCN(C)CC1` (stereo not drawn) [3-Ethyl-2-methyl-1-(4-methyl-piperazin-1-yl)-5-phenyl-pentan-3-ol], the “BTX binding at 10 μM [%] inhibition” value in assay [1] came to 74%. Further, at 10 µM the inhibition in assay [2] was 88%.

In assay [2], `CCC(O)(C#Cc1ccccc1)C(C)CN1CCN(c2cccc(Cl)c2)CC1` (stereo not drawn) [5-[4-(3-Chloro-phenyl)-piperazin-1-yl]-3-ethyl-4-methyl-1-phenyl-pent-1-yn-3-ol] had an inhibition at 10 µM of 46%.

On to `C=CC(O)(CC)C(C)CN1CCN(c2cccc(Cl)c2)CC1` (stereo not drawn) [5-[4-(3-Chloro-phenyl)-piperazin-1-yl]-3-ethyl-4-methyl-pent-1-en-3-ol], for which the inhibition at 10 µM in assay [2] is 53%.

The record behind these values is US7390812B2, “N, N'-disubstituted piperazine compounds and their use as analgesics” (Gruenenthal GmbH, priority 2001, dated 2008).
